# Columns and labels:
# in vitro = conditions: dog, MDCK, pH 7.4
# [1] = Physicochemical parameters
# human OCT2 [2] = molecular target: T1, human OCT2 (Homo sapiens, UniProt O15244); assay: hOCT2 substrate; format: in vitro ADME; conditions: 1 μM PFAS screen
# T1 sequence (O15244 1-555): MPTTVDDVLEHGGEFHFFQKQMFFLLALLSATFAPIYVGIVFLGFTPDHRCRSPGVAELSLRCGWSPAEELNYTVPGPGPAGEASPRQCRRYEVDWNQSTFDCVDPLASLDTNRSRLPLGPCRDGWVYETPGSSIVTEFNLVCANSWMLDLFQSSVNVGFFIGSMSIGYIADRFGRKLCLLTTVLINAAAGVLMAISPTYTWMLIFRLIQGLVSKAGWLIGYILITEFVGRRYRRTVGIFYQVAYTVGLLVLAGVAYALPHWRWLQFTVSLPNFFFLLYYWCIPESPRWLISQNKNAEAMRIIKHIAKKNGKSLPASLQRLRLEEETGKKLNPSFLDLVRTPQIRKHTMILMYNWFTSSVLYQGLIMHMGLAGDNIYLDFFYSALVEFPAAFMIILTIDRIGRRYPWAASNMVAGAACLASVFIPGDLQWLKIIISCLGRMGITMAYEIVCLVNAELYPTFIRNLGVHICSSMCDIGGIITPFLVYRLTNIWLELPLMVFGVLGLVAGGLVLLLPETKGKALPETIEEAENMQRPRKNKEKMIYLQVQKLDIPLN
# [3] = system: MDCKII-LE cell monolayers; conditions: MDCK
# human OCT2 [4] = molecular target: T1, human OCT2; assay: OCT2 inhibition assay; format: cell-based
# human OAT3 [5] = molecular target: T2, human OAT3 (Homo sapiens, UniProt Q8TCC7); assay: OAT3 inhibition assay
# T2 sequence (Q8TCC7 1-542): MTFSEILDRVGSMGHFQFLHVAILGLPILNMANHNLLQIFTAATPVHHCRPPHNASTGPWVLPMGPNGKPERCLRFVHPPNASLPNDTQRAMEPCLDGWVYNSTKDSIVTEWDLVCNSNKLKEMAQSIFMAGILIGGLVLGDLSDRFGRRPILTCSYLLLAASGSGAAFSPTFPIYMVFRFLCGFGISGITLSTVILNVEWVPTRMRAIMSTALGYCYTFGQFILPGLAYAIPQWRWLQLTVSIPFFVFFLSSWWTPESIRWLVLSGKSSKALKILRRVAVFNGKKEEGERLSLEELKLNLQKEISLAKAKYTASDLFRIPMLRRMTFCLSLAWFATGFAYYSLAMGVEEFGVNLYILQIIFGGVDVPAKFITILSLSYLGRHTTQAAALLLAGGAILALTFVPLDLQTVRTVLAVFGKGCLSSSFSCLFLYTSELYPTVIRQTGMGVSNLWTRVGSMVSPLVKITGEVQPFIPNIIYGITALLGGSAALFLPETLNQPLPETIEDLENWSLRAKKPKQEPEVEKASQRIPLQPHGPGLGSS
# human OAT1 [6] = molecular target: T3, human OAT1 (Homo sapiens, UniProt Q4U2R8); assay: OAT1 inhibition assay
# T3 sequence (Q4U2R8 1-563): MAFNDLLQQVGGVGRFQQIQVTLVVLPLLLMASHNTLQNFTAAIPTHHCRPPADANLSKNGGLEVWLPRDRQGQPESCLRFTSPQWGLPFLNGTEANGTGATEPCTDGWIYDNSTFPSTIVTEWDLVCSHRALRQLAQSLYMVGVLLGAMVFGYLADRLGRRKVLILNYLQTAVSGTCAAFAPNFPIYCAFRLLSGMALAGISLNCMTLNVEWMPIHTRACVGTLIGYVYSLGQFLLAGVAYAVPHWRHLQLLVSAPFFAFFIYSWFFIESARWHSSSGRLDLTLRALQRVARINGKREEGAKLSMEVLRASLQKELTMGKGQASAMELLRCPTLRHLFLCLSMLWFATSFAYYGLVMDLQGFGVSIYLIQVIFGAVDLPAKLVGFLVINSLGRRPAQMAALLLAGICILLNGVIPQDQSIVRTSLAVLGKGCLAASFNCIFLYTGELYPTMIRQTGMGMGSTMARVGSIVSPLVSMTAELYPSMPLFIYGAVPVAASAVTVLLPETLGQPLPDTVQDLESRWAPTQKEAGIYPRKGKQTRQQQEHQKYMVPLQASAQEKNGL
# human OAT1 [7] = molecular target: T3, human OAT1; assay: hOAT1 substrate; conditions: 1 μM PFAS screen
# human OAT4 = molecular target: T4, human OAT4 (Homo sapiens, UniProt Q9NSA0); assay: hOAT4 substrate; format: in vitro ADME
# T4 sequence (Q9NSA0 1-550): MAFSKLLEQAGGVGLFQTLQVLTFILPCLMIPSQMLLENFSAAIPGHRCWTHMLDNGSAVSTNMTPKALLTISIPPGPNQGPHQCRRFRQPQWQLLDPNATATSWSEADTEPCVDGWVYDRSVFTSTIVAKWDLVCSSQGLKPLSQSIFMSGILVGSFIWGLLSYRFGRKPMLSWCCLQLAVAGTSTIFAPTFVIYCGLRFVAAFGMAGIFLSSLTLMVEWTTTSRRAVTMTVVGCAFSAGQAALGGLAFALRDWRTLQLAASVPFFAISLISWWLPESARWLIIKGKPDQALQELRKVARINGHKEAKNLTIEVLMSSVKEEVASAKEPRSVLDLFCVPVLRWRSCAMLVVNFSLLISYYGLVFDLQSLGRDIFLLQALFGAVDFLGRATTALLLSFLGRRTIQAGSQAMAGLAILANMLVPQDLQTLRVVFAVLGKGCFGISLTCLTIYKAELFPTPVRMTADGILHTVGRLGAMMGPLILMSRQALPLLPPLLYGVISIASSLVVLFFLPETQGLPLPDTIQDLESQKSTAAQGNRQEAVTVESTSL
# [8] = PFHpA versus PFUDA; ref Zhang et al. (2013); cited from earlier work
# human OAT3 [9] = molecular target: T2, human OAT3; assay: hOAT3 substrate
Structure (SMILES),"Papp A→B at 90 min, 2 μM (in vitro) [×10⁻⁶ cm/s]",neutral fraction at pH 7.4 [1],"hOCT2 uptake ratio, % higher than mock transfectant controls (human OCT2 [2])","Papp at pH 6.5 relative to pH 7.4, times higher [3]","Ph 7.4 A-B Papp ([3]; dog, 90 min, 2 μM, pH 7.4) [cm/s]",IC50 (human OCT2 [4]) [µM],IC50 (human OAT3 [5]) [µM],Some level of inhibition against hOAT3 mediated transport (human OAT3 [5]),Some level of inhibition against hOAT1 mediated transport (human OAT1 [6]),"hOAT1 uptake ratio, % higher than controls (human OAT1 [7])",OAT4 substrate classification (human OAT4),"hOAT4 uptake ratio, % above controls (human OAT4; 1 μM PFAS screen)","Transporter Uptake Ratio OAT4 (human OAT4; 1 μM PFAS, threshold ≥ 2-fold)",Effect of probenecid co-treatment on hOAT4-mediated uptake (human OAT4; probenecid 1 mM),"human renal clearance rate, fold higher than PFUDA [8]","hOAT3 uptake ratio, fold higher than mock transfected controls (human OAT3 [9]; 1 μM PFAS screen)","Transporter Uptake Ratio OAT3 (human OAT3 [9]; 1 μM PFAS, threshold ≥ 2-fold)","hOAT3-mediated uptake, fold (human OAT3 [9]; follow-up test, without probenecid)",Effect of probenecid cotreatment on hOAT3-mediated uptake (human OAT3 [9]; probenecid 1 mM),IC50 (human OAT1 [6]) [µM]
"NS(=O)(=O)C(F)(F)C(F)(F)C(F)(F)C(F)(F)C(F)(F)C(F)(F)C(F)(F)C(F)(F)F [PFOSA, perfluorooctanesulfonamide]",41.4,~ 6%,~ 10%,~ 2 times,4.14e-05,245,21.1 to 123,–,–,–,–,–,–,–,–,–,–,–,–,–
"O=C(O)C(F)(F)C(F)(F)C(F)(F)C(F)(F)C(F)(F)C(F)(F)C(F)(F)C(F)(F)C(F)(F)C(F)(F)C(F)(F)F [PFDoDA, perfluorododecanoic acid]",–,–,~ 10%,–,–,–,–,the only exceptions,the only exceptions,–,–,–,–,–,–,–,–,–,–,–
"O=C(O)C(F)(F)C(F)(F)C(F)(F)C(F)(F)C(F)(F)C(F)(F)F [PFHpA, perfluoroheptanoic acid]",–,–,–,–,–,–,10.2,–,–,5–60%,strong substrates,~ 20%,+ (denoted with a “+” to denote a threshold of ≥ 2-fold has been met and considered a substrate for the transporter),effectively inhibited,~ 10 fold,2.5–12 fold,+ (denoted with a “+” to denote a threshold of ≥ 2-fold has been met and considered a substrate for the transporter),2.5–15 fold,markedly inhibited,51.4 to 166
